{"source": "patent US6596498B1", "about": "“Bone stimulating factor” (Osteopharm Inc., priority 1993, dated 2003)", "key": {"intact rats [1]": {"tested_on": "intact rats", "test": "Bone mineral apposition rate by tetracycline labelling in intact rats", "format": "in vivo, rat", "from_the_text": "Tetracycline is excited by long UV light (i.e., with a range close to the blue range) and a bright yellow fluorescence is emitted, which fluorescence is detectable in bone sections viewed with a fluorescence microscope. Tetracycline labels a bone surface when a newly formed collagen matrix begins to incorporate calcium and when such surface is sectioned, the tetracycline appears as a yellow fluorescent band. A subsequently administered dose of tetracycline appears as a second band located superficial to the first band. The distance between the two bands represent the thickness of bone matrix formed in the interval between the two doses. The rate of bone deposition can be calculated by dividing the distance with the time interval between doses. Errors can be introduced by cuts which are not perpendicular to the growing bone surface. To reduce this error, only sites in which the two bands were distinct and parallel to each other were used. Measurements made on 10 randomly chosen sites fulfilling this requirement were chosen to give readings close to the arithmetic mean of the rate.\nThe measuring system used was a Leitz scanning light microscope photometer MPV-CD with a UV source being provided by a 100 W stabilized mercury burner. Sections were generally magnified using 16× objective using a moving scanning slit, the intensity of the fluorescent band was amplified and recorded. The light signal was transformed into digital output and the profile of the tetracycline intensity recorded. The instrument carries a mechanical error of less than 5%. The distance measured was periodically calibrated with a microscopic grid and a good correlation was found, as shown in FIG. 2.\nIntact 400-420 g male rats were used for testing. A control group received the carrier buffer of 50 mM sodium phosphate (pH 7.2). […]\nThe unstained plastic embedded sections were viewed under a fluorescence microscope with a ×16 objective and ×10 eyepieces systematically to cover the trabecular bone in the space enclosed by the endosteal surface. […]"}, "intact rats [2]": {"tested_on": "intact rats", "test": "Bone mineral apposition rate by tetracycline labelling in intact rats", "format": "in vivo, rat", "remark": "listed apart in the source"}, "ovariectomized rats [3]": {"tested_on": "ovariectomized rats", "test": "Bone mineral apposition rate in ovariectomized rats", "format": "in vivo, rat", "conditions": "100 μg s.c. every 24 hours for 28 days; lower metaphysis of left femur; untreated OVX 0.59, sham 0.85, intact 0.86", "protocol": "Ovariectomies were performed on six female Sprague-Dawley rats, each sedated with 1 mg of sodium barbiturate I.P. Sham operations were carried out a second group of six rats. The rats were given two weeks to recover from the operations. The six ovariectomized rats were injected subcutaneously with 100 μl of a 0.1% acetic acid solution containing 100 μg of the chemically synthesized peptide (SEQ ID NO:11) every 24 hours for 28 days. […] A second group of six ovariectomized rats, was similarly treated with a 0.1% acetic acid solution containing no peptide over the same 28 day period. A third group of six rats, each of which had undergone the sham operation, was similarly treated with a 0.1% acetic acid solution containing no peptide over the same 28 day period. A fourth group of six intact rats was similarly treated with a 0.1% acetic acid solution containing no peptide over the same 28 day period. The bone mineral apposition rate was determined, as described previously, by measurement of the lower metaphysis of the left femur. The results are tabulated in Table Six and graphically depicted in FIG. 25."}, "ovariectomized rats [4]": {"tested_on": "ovariectomized rats", "test": "Right femoral bone calcium density of ovariectomized rats", "format": "in vivo, rat", "protocol": "Ovariectomies were performed on six female Sprague-Dawley rats, each sedated with 1 mg of sodium barbiturate I.P. Sham operations were carried out a second group of six rats. The rats were given two weeks to recover from the operations. The six ovariectomized rats were injected subcutaneously with 100 μl of a 0.1% acetic acid solution containing 100 μg of the chemically synthesized peptide (SEQ ID NO:11) every 24 hours for 28 days. […] The right femur of each rat was decalcified separately. The decalcification fluid consisted of 10% formic acid (v/v) and 5% sodium citrate (w/v) at pH 3.0. Each bone was placed in 6 ml of the decalcification fluid. The fluid was […] days, again after another 4 days, again after another 2 days, and again after another 3 days. After another 2 days, the decalcification fluid was removed and replaced by deionized water, and the sample agitated for 2 days. The water changed after two days and again after another day. […] The volume of each right femur was determined by determining the volume of water displaced when the bone was immersed in water. The calcium concentration of each sample was determined according to standard methods and the calcium density of each bone calculated. […] The right femurs were decalcified and calcium density determined as before."}, "[5]": {"tested_on": "parathyroidectomized rats", "test": "Histological evaluation of selected tissues for toxic lesions after miniosmotic pump implantation", "format": "in vivo, rat", "conditions": "about 25 μg per day by miniosmotic pump, about 31 days", "protocol": "A miniosmotic pump (Alzet) was loaded with about 1.5 ml of the chemically synthesized peptide having an N-terminal acetyl group (SEQ ID NO:12) in 0.1% acetic acid so as to give a calculated daily delivery of about 25 μg per day. A pump was implanted under the subcutaneous fascia of the dorsal aspect of the left side of the thorax of five rats which had been parathyroidectomized seven days earlier. Five similarly parathyroidectomized rats received similar implants containing only 0.1% acetic acid. Five intact rats were also used as controls.\nHistological evaluation of selected tissues of the five rats of each of the groups indicated in Table Four were carried out microscopically."}, "ovariectomized rats [6]": {"tested_on": "ovariectomized rats", "test": "Autopsy of ovariectomized rats after daily peptide injection", "format": "in vivo, rat", "conditions": "100 μg s.c. daily for eight weeks", "protocol": "The six ovariectomized rats were injected subcutaneously with 100 μl of a 0.1% acetic acid solution containing 100 μg of the chemically synthesized peptide (SEQ ID NO:11) every 24 hours for 28 days. […] Postmortem blood was taken by cardiac puncture and serum frozen until analyzed. A full autopsy was performed on each rat. […] Eight weeks after ovariectomization, five ovariectomized rats were injected subcutaneously with 100 μl of a 0.1% acetic acid solution containing 100 μg of the chemically synthesized peptide in which the N-terminal amino group was modified with an acetyl group (SEQ ID NO:12). This was done every 24 hours for eight weeks. […] Postmortem blood was taken by cardiac puncture and serum frozen until analyzed. An autopsy was performed on each rat."}, "[7]": {"conditions": "24 mg/kg of body weight intravenously, rat; serum level by bioassay; cited from earlier work"}, "[8]": {"conditions": "0.1 ml of 1 mg per ml solution, subcutaneous, right thigh, lower metaphysis of right femur, control 1.02"}}, "note": "Entries after “also recorded” stand apart in the source; their conditions may differ. Ends that are not written are not given here."}
{"compound": "expressed polypeptide: human polypeptide (SEQ ID NO:11 sequence) expressed in E. coli JM 103 from pUC 8 plasmid, purified by C3 HPLC (GIGKRTNEHTADCKIKPNTLHKKAAETLMVLDQNQP)", "values": [{"measurement": "effect on bone formation", "setting": "intact rats [1]; 0.7 and 0.3 O.D. (280 nm) units injected, intact 400-420 g male rats vs carrier buffer", "result": "appears to have a stimulant effect on bone formation; also recorded: showed biological activity"}]}
{"compound": "GIGKRTNEHTADAKIKPNTLHKKAAETLMVLDQNQP [SEQ ID NO:13]", "values": [{"measurement": "bone apposition rate", "setting": "intact rats [2]; 0.1 ml of 1 mg per ml solution s.c., compared with control and normal peptide", "result": "significantly greater than that for those of the control group but below the bone apposition rate shown for the rats injected with the normal peptide"}, {"measurement": "bone mineral apposition rate, Mean", "setting": "intact rats [2]; [8]", "result": 1.35, "unit": "μm/d"}]}
{"compound": "GIGKRTNEHTADCKIKPNTLHKKAAETLMVLDQNQP [SEQ ID NO:11]", "values": [{"measurement": "bone mineral apposition rate, Mean", "setting": "intact rats [2]; 50 μg single intramuscular injection, lower femoral epiphysis, control 0.85", "result": 1.15, "unit": "μm/day"}, {"measurement": "bone mineral apposition rate, Mean", "setting": "intact rats [2]; 100 μg single intramuscular injection, lower femoral epiphysis, control 0.85", "result": 1.32, "unit": "μm/day"}, {"measurement": "bone mineral apposition rate, Mean", "setting": "intact rats [2]; [8]", "result": 1.67, "unit": "μm/d"}, {"measurement": "dose dependency of stimulant effect", "setting": "intact rats [2]; 25-100 μg, intramuscular", "result": "increases with the amount of peptide administered"}, {"measurement": "bone mineral apposition rate, Mean", "setting": "ovariectomized rats [3]", "result": 0.90, "unit": "μm/day"}, {"measurement": "bone calcium concentration", "setting": "ovariectomized rats [4]; 100 μg s.c. daily for 28 days, ovariectomized rats", "result": "appears to be normal"}, {"measurement": "Right Femoral Calcium Concentration, Mean", "setting": "ovariectomized rats [4]; 100 μg s.c. every 24 hours for 28 days, starting two weeks after ovariectomy, untreated OVX 6.61, sham 7.45, intact 7.69", "result": 7.57, "unit": "µmol/mL"}, {"measurement": "bone apposition rate, Mean", "setting": "intact rats [1]; 25 μg in 1 ml, single intramuscular injection, lower metaphysis of right femur, vehicle control 1.03", "result": 1.35, "unit": "μm/d"}, {"measurement": "bone mineral apposition rate, Mean", "setting": "intact rats [1]; 25 μg single intramuscular injection, lower femoral epiphysis, control 0.85", "result": 1.05, "unit": "μm/day"}]}
{"compound": "Ac-GIGKRTNEHTADCKIKPNTLHKKAAETLMVLDQNQP [SEQ ID NO:12]", "values": [{"measurement": "histological evaluation of selected tissues (toxic lesions)", "setting": "[5]", "result": "No evidence of toxic lesions was found"}, {"measurement": "pathology at autopsy", "setting": "ovariectomized rats [6]", "result": "No obvious pathology was observed"}]}
{"compound": "CN(C)[C@@H]1C(O)=C(C(N)=O)C(=O)[C@@]2(O)C(O)=C3C(=O)c4c(O)cccc4[C@@](C)(O)[C@H]3C[C@@H]12", "note": "[tetracycline]", "values": [{"measurement": "clearance from the circulation", "setting": "[7]", "result": "cleared from the circulation within half an hour"}]}
